Reference: patent publication US20250223628A1, “METHODS OF IMPROVING SURVIVAL AND ELIMINATING TREATMENT-LIMITING TOXICITIES OF DICHLOROACETATE IN PATIENTS WITH PYRUVATE DEHYDROGENASE COMPLEX DEFICIENCY” (SAOL INTERNATIONAL DEVELOPMENT LTD., priority 2024, published 2025)
Like-named read-outs stand apart in the source and are kept apart here.

Legend:
patients with PDCD [1] = assay: Prospective, randomized, double-blind, placebo-controlled crossover study with GSTZ1 haplotype-based DCA dosing and open-label extension; assay type: in vivo, human
Experimental: A prospective, randomized, double-blind, placebo-controlled crossover study was conducted in patients with PDCD. This study was the first study to prospectively use GSTZ1 haplotype testing to identify a dose that may help to mitigate the risk of peripheral neuropathy from chronic administration of DCA. These patients were treated with either DCA or placebo for 4 months, provided placebo for a 1-month washout period and then were placed on the placebo or DCA, whichever they had not taken prior. Patients then had the option to continue on open-label DCA until the ultimate completion of the study or regulatory approval. 34 PDCD patients were recruited into the study. 7 (21%) of these patients were prospectively identified as “slow metabolizers”. Rather than having a dose of 25 mg/kg/day, these patients were provided DCA doses at 12.5 mg/kg/day. Both dosing groups took DCA in two equal, weight-based doses. This was the first prospective study completed using the haplotype testing and conducted solely in the PDCD patient population.
The study had anticipated a 20% dropout rate due to death or peripheral neuropathy.

patients with PDCD [2] = assay: Survival analysis of DCA treatment cohort versus DeBrosse natural history cohort; assay type: in vivo, human; details: for Adjusted Odds Ratio (95% CI): DCA vs natural history
Experimental: As a result, an analysis procedure was identified that used the data available in the DeBrosse natural history study to assess whether or not DCA extended life. The analysis was conducted to answer the following questions: • a. Did the year of birth have any effect on survival? For example, has standard of care improved. • b. Is the primary driver of survival differences from natural history driven by the ketogenic diet, the current standard of care, although empirical approach to managing PDCD patients? • c. Once the population is controlled for an index age, gender and age of disease onset, does DCA provide a survival benefit? • d. Once the population is controlled for an index age and age of disease onset, does DCA provide a survival benefit? • e. Once the population has the maximum duration of follow-up, including with patients that discontinued treatment, does DCA provide a survival benefit?
After accounting for two patients with multiple exclusion criteria, 34 patients (14 males and 20 females) from the DeBrosse study remain for potential matching for the current analyses.
Baseline characteristics related to drug and non-drug treatment, age at the earliest recorded of first related symptom, initiation of the ketogenic diet or diagnosis and other baseline demographics were compared for each analysis. It was notable that the Phase III cohort had more females. This was controlled by conducting a 1:1 matched cohort in the primary analysis that requires gender matching.
A summary of all analyses conducted with both Kaplan-Meier log-rank statistics and hazard/odds ratio reductions are provided below: […]

[3] = cited from earlier work
[4] = system: patients with congenital lactic acidosis (CLA); details: 25 mg/kg broken into two daily doses, cited from earlier work
[5] = Abdelmak 2013, Congenital Lactic Acidosis, 8 total patients
[6] = Dunbar 2014, Recurrent Malignant Brain Tumor, 8 total patients
[7] = Kaufmann 2006, MELAS, 15 total patients
[8] = Michelakis 2017, Pulmonary Arterial Hypertension, 20 total patients
[9] = Stacpoole 2008, Congenital Lactic Acidosis, 36 total patients

O=C(O)C(Cl)Cl [DCA, Dichloroacetate]
Completion of the double-blind portion (patients with PDCD [1]; 34 PDCD patients, 25 or 12.5 mg/kg/day by haplotype): all of the patients completed
Dropouts for other reasons (patients with PDCD [1]; double-blind portion): zero
Events of peripheral neuropathy (patients with PDCD [1]; double-blind study): zero
Events of neuropathy possibly related to therapy (patients with PDCD [1]; open-label phase, occurred after 18 months of exposure): one
Adjusted Odds Ratio (95% CI) (patients with PDCD [2]; Full Cohort Comparison, multivariate P 0.0065): 0.014
Adjusted Odds Ratio (95% CI) (patients with PDCD [2]; Matched on Age and Sex, Excluding 1980s Patients with Extended Follow-Up, multivariate P 0.0055): 0.023
Adjusted Odds Ratio (95% CI) (patients with PDCD [2]; Matched on Age and Sex, Excluding 1980s Patients, multivariate P 0.0033): 0.0072
Adjusted Odds Ratio (95% CI) (patients with PDCD [2]; Matched on Age, multivariate P 0.0012): 0.0071
Adjusted Odds Ratio (95% CI) (patients with PDCD [2]; Matched on Sex and Follow-Up Duration, multivariate P 0.024): 0.026
Adjusted Odds Ratio (95% CI) (patients with PDCD [2]; Primary Analysis with Extended Follow-Up, multivariate P 0.0029): 0.013
Adjusted Odds Ratio (95% CI) (patients with PDCD [2]; Primary Analysis: Matched on Age and Sex, multivariate P 0.0061): 0.011
DCA Treatment Cohort Mortality Rate (95% CI) (patients with PDCD [2]; Full Cohort Comparison, N 33, log rank P 0.003): 0.00
DCA Treatment Cohort Mortality Rate (95% CI) (patients with PDCD [2]; Matched on Age and Sex with Replacement with Extended Follow-Up, N 31, log rank P 0.0443): 1.38
DCA Treatment Cohort Mortality Rate (95% CI) (patients with PDCD [2]; Matched on Age and Sex with Replacement, N 31, log rank P 0.0295): 0.00
DCA Treatment Cohort Mortality Rate (95% CI) (patients with PDCD [2]; Matched on Age and Sex with Unknown Onset Imputed at 0, N 28, log rank P 0.0273): 0.00
DCA Treatment Cohort Mortality Rate (95% CI) (patients with PDCD [2]; Matched on Age and Sex with Unknown Onset Imputed at 0 with Extended Follow-Up, N 28, log rank P 0.0357): 1.55
DCA Treatment Cohort Mortality Rate (95% CI) (patients with PDCD [2]; Matched on Age and Sex, Excluding 1980s Patients with Extended Follow-Up, N 25, log rank P 0.0899): 1.74
DCA Treatment Cohort Mortality Rate (95% CI) (patients with PDCD [2]; Matched on Age and Sex, Excluding 1980s Patients, N 25, log rank P 0.0255): 0.00
DCA Treatment Cohort Mortality Rate (95% CI) (patients with PDCD [2]; Matched on Age, N 32, log rank P 0.0019): 0.00
DCA Treatment Cohort Mortality Rate (95% CI) (patients with PDCD [2]; Matched on Sex and Follow-Up Duration, N 28, log rank P 0.0211): 0.00
DCA Treatment Cohort Mortality Rate (95% CI) (patients with PDCD [2]; Primary Analysis with Extended Follow-Up, N 28, log rank P 0.0357): 1.55
DCA Treatment Cohort Mortality Rate (95% CI) (patients with PDCD [2]; Primary Analysis: Matched on Age and Sex, N 28, log rank P 0.0273): 0
Peripheral Neuropathy Adverse Event Rate [3, 5]: 38%
Peripheral Neuropathy Adverse Events [3, 5]: 3
Peripheral Neuropathy Adverse Event Rate [3, 6]: 25%
Peripheral Neuropathy Adverse Events [3, 6]: 2
Peripheral Neuropathy Adverse Event Rate [3, 7]: 100%
Peripheral Neuropathy Adverse Events [3, 7]: 15
Peripheral Neuropathy Adverse Event Rate [3, 8]: 25%
Peripheral Neuropathy Adverse Events [3, 8]: 5
Peripheral Neuropathy Adverse Event Rate [3, 9]: 36%
Peripheral Neuropathy Adverse Events [3, 9]: 13
Peripheral Neuropathy Adverse Events ([3]; Total of five studies, 87 total patients): 38
Peripheral Neuropathy Adverse Event Rate ([3]; Total of several studies across multiple disease states, 87 total patients): 44%
Dose required for a similar pharmacokinetic exposure ([3]; slow metabolizer group of GSTZ1 haplotypes, fraction of the dose): roughly ½
Recovery from peripheral neuropathy exhibited during DCA administration ([3]; time to recovery): ≤ 9 months
Patients who experienced peripheral neuropathy ([4]; double blind portion): 36%
Patients who experienced peripheral neuropathy ([4]; long-term extension arm): 38%
